# Measured values reported in patent US10513496B2, “Aminobenzamide derivatives as useful agents for controlling animal parasites” (BAYER INTELLECTUAL PROPERTY GMBH, priority 2007, dated 2019).
# Tests used:
# Format in all cases: in vivo
# Ctenocephalides felis = Ctenocephalides felis test (CTECFE); conditions: application rate 100 ppm in cattle blood, adult unfed fleas, 100% = all fleas killed
# Protocol: Ctenocephalides felis—Test (CTECFE)
# (§1) Solvent: Dimethyl Sulfoxide
# To produce a suitable preparation of active compound, 10 mg of active compound are dissolved in 0.5 ml solvent, and the concentrate is diluted with cattle blood to the desired concentration.
# Approximately 10 to 15 adult unfed (Ctenocepahlides felis) are placed in flea chambers. The blood chamber, sealed with parafilm on the bottom are filled with cattle blood supplied with compound solution and placed on top of the flea chamber, so that the fleas are able to suck the blood. The blood chamber is heated to 37° C. whereas the flea chamber is kept at room temperature.
# After the specified period of time, mortality in % is determined. 100% means that all the fleas have been killed; 0% means that none of the fleas have been killed.
# Lucilia cuprina larvae = assay: Lucillia cuprina test; conditions: application rate 100 ppm, larvae on minced horse meat, 100% = all larvae killed
# Protocol: as §1
# (§2) To produce a suitable preparation of active compound, 10 mg of active compound are dissolved in 0.5 ml solvent, and the concentrate is diluted with water to the desired concentration.
# Approximately 20-30 (Lucilia cuprina larvae) are transferred into a test tube containing 1 cm^3 of minced horse meat and 0.5 ml aqueous dilution of test compound.
# After the specified period of time, mortality in % is determined. 100% means that all the larvae have been killed; 0% means that none of the larvae have been killed.
# Boophilus microplus = Boophilus microplus test (injection); conditions: Rhipicephalus microplus; application rate 20 μg/animal; injected into abdomen of adult engorged female ticks; 100% = all eggs infertile
# Protocol: Boophilus microplus—Test (Injection)
# as §1, §2
# Five adult engorged female ticks (Boophilus microplus) are injected with compound solution into the abdomen. Ticks are transferred into replica plates and incubated in a climate chamber for a period of time. Egg deposition of fertile eggs is monitored.
# After the specified period of time, mortality in % is determined. 100% means that all eggs are infertile; 0% means that all eggs are fertile.
# Musca domestica = Musca domestica test; conditions: application rate 100 ppm, adults, sponge soaked with sugar and compound solution, 100% = all flies killed
# Protocol: as §1, §2
# Prior to the assay, a piece or kitchen sponge is soaked with a mixture of sugar and compound solution and placed into a container. 10 adults (Musca domestica) are placed into the container and closed with a perforated lid.
# After the specified period of time, mortality in % is determined. 100% means that all the flies have been killed; 0% means that none of the flies have been killed.
SMILES,mortality at 100 ppm (Ctenocephalides felis) [%],mortality at 100 ppm (Lucilia cuprina larvae) [%],mortality at 0.02 mg (Boophilus microplus) [%],mortality at 100 ppm (Musca domestica) [%]
O=C(Nc1c(I)cc(C(F)(F)F)cc1I)c1cccc(NC(=O)c2ccccc2F)c1 [Example I-1-207],≥ 80,≥ 80,80,–
O=C(Nc1c(I)cc(C(F)(F)F)cc1I)c1cccc(NC(=O)c2cccnc2F)c1 [Example I-1-208],≥ 80,≥ 80,80,≥ 80
O=C(Nc1cccc(C(=O)Nc2c(I)cc(C(F)(F)F)cc2C(F)(F)F)c1)c1ccccc1 [Example I-1-204],≥ 80,≥ 80,80,–
O=C(Nc1cccc(C(=O)Nc2c(I)cc(C(F)(F)F)cc2C(F)(F)F)c1)c1ccc(Cl)cc1 [Example I-1-211],–,–,80,–
O=C(Nc1cccc(C(=O)Nc2c(Br)cc(Br)cc2Br)c1)c1ccccc1 [Example I-1-205],–,–,80,–
O=C(Nc1cccc(C(=O)Nc2c(I)cc(C(F)(F)F)cc2C(F)(F)F)c1)c1ccc(Cl)cc1 [Example I-1-206],≥ 80,≥ 80,–,–
CCc1cc(SC(F)(F)F)cc(C)c1NC(=O)c1cccc(NC(=O)c2ccccc2F)c1 [Example I-1-186],≥ 80,≥ 80,80,–
CCc1cc(SC(F)(F)C(F)(F)F)cc(C)c1NC(=O)c1cccc(NC(=O)c2ccccc2F)c1 [Example I-1-187],≥ 80,≥ 80,80,–
O=C(Nc1c(I)cc(C(F)(F)F)cc1C(F)(F)F)c1cccc(NC(=O)c2ccccc2F)c1 [Example I-1-203],≥ 80,–,80,–
O=C(Nc1c(Br)cc(S(F)(F)(F)(F)F)cc1Br)c1cccc(NC(=O)c2ccccc2F)c1 [Example I-1-213],≥ 80,≥ 80,80,–
O=C(Nc1cccc(C(=O)Nc2c(Br)cc(Br)cc2C(F)(F)F)c1)c1ccc(Cl)cc1 [Example I-1-212],≥ 80,–,80,–
